{"source": "ChEMBL document CHEMBL4428024", "about": "“Targeting the Bacterial Division Protein FtsZ” (J Med Chem, 2016)", "key": {"Bacillus subtilis": {"test_system": "Bacillus subtilis", "experiment": "Antimicrobial activity against Bacillus subtilis", "assay_type": "functional"}, "Staphylococcus aureus [1]": {"test_system": "Staphylococcus aureus", "experiment": "Antimicrobial activity against Staphylococcus aureus", "assay_type": "functional"}, "Enterococcus faecalis": {"test_system": "Enterococcus faecalis", "experiment": "Antimicrobial activity against Enterococcus faecalis", "assay_type": "functional"}, "[2]": {"experiment": "Inhibition of ZipA-FtsZ protein-protein interaction (unknown origin) assessed as reduction in binding of fluorescein-labeled analogue of FtsZ C-terminal residues (367 to 383 residues) to C-terminal domain of ZipA (185 to 328 residues) by fluorescence polarization assay"}, "[3]": {"molecular_target": "T1, Cell division protein FtsZ (Escherichia coli K-12) (UniProt P0A9A6)", "T1 sequence (whole entry)": "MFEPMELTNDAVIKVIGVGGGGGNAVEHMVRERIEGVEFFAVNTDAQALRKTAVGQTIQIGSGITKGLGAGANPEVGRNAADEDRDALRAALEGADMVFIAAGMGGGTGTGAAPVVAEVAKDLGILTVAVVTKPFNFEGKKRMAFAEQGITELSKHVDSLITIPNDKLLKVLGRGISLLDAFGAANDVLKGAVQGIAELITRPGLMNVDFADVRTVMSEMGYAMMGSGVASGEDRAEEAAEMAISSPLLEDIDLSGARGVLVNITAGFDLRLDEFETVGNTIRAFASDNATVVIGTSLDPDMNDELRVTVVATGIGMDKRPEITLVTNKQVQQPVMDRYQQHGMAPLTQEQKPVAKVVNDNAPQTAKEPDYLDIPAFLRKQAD", "experiment": "Inhibition of Escherichia coli FtsZ assessed as reduction in GTPase activity by malachite green assay"}, "Staphylococcus aureus [4]": {"test_system": "Staphylococcus aureus", "experiment": "Antimicrobial activity against methicillin resistant Staphylococcus aureus", "assay_type": "functional"}, "[5]": {"molecular_target": "T1, Cell division protein FtsZ (Escherichia coli K-12)", "experiment": "Inhibition of Escherichia coli FtsZ assessed as reduction in polymerization"}, "Escherichia coli": {"test_system": "Escherichia coli", "experiment": "Antimicrobial activity against Escherichia coli", "assay_type": "functional"}, "[6]": {"molecular_target": "T2, Cell division protein FtsZ (Escherichia coli K-12, UniProt P0A9A6)", "T2 sequence (P0A9A6 whole entry)": "T1 sequence (whole entry)", "experiment": "Displacement of bis-ANS from Escherichia coli FtsZ"}, "[7]": {"molecular_target": "T3, Cell division protein FtsZ (Staphylococcus aureus) (UniProt P0A031)", "T3 sequence (whole entry)": "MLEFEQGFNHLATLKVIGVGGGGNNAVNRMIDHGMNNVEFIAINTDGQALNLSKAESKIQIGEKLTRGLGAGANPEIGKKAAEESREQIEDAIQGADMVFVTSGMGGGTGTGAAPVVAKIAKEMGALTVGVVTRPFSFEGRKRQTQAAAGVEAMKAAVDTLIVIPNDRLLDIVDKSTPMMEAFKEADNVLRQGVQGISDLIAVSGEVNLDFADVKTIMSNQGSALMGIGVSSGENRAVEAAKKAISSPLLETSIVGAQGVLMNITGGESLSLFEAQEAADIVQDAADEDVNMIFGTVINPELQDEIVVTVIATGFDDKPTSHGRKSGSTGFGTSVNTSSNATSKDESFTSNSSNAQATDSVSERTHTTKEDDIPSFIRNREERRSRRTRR", "experiment": "Activation of Staphylococcus aureus FtsZ assessed as increase in GTPase activity by malachite green assay"}, "[8]": {"molecular_target": "T4, Cell division protein FtsZ (Bacillus subtilis) (UniProt A5Z1V5)", "T4 sequence (whole entry)": "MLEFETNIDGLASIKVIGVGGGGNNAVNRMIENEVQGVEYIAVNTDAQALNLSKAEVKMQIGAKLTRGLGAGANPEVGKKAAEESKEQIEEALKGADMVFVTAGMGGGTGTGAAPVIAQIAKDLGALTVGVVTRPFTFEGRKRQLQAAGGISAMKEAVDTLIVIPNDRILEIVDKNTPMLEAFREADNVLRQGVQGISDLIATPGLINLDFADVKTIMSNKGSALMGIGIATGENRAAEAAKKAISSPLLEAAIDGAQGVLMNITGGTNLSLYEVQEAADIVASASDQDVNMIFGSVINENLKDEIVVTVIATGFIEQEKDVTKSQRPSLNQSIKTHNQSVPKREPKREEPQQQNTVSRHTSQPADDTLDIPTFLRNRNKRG", "experiment": "Inhibition of Bacillus subtilis FtsZ assessed as reduction in GTPase activity by malachite green assay"}, "[9]": {"test_system": "Mycolicibacterium smegmatis", "experiment": "Antimicrobial activity against Mycobacterium smegmatis", "assay_type": "functional"}, "[10]": {"molecular_target": "T3, Cell division protein FtsZ (Staphylococcus aureus)", "experiment": "Inhibition of Staphylococcus aureus FtsZ assessed as reduction in GTPase activity by coupled enzyme assay"}, "[11]": {"molecular_target": "T5, Cell division protein FtsZ (Mycobacterium tuberculosis) (UniProt P9WN95)", "T5 sequence (whole entry)": "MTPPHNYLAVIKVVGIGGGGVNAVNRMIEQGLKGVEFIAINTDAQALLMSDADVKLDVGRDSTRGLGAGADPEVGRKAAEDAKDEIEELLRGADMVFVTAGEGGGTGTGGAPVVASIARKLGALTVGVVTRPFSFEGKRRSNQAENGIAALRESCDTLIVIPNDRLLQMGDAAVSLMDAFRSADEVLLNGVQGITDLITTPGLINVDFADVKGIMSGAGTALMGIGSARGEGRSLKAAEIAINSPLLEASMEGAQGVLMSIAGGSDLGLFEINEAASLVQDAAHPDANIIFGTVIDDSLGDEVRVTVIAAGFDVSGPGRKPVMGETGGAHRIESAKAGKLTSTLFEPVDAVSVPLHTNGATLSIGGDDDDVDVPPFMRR", "experiment": "Inhibition of Mycobacterium tuberculosis FtsZ assessed as reduction in GTPase activity by malachite green assay"}, "[12]": {"molecular_target": "T5, Cell division protein FtsZ (Mycobacterium tuberculosis)", "experiment": "Inhibition of Mycobacterium tuberculosis FtsZ assessed as reduction in GTPase activity by coupled enzyme assay"}, "[13]": {"molecular_target": "T1, Cell division protein FtsZ (Escherichia coli K-12)", "experiment": "Inhibition of Escherichia coli FtsZ assessed as reduction in GTPase activity by coupled enzyme assay"}, "[14]": {"molecular_target": "T1, Cell division protein FtsZ (Escherichia coli K-12)", "description": "Binding affinity to Escherichia coli FtsZ"}}, "data": [{"compound": "O=C(O)c1ccc(-c2cccc(-c3c(-c4ccccc4)[nH]c4ccccc34)c2)cc1", "values": [{"measurement": "MIC", "setting": "Bacillus subtilis", "value": 4, "unit": "µg/mL"}, {"measurement": "MIC", "setting": "Staphylococcus aureus [1]", "value": "4 to 8", "unit": "µg/mL"}, {"measurement": "MIC", "setting": "Enterococcus faecalis", "value": "8 to 16", "unit": "µg/mL"}, {"measurement": "IC50", "setting": "[2]", "value": 192, "unit": "µM"}]}, {"compound": "Oc1cc(O)c2c(c1)C/C(Cl)=C\\Cc1cc(c(Cl)cc1O)Oc1c(O)cc(cc1O)C/C(Cl)=C\\Cc1cc(c(Cl)cc1O)O2", "values": [{"measurement": "INH", "setting": "[3]", "value": 9.88, "unit": "µM"}, {"measurement": "MIC", "setting": "Staphylococcus aureus [1]", "value": 1.8, "unit": "µg/mL"}, {"measurement": "INH", "setting": "Staphylococcus aureus [4]", "value": 1.5, "unit": "µg/mL"}]}, {"compound": "COc1ccc2cc3[n+](cc2c1OC)CCc1cc2c(cc1-3)OCO2.[Cl-]", "note": "[BERBERINE CHLORIDE]", "values": [{"measurement": "IC50", "setting": "[5]", "value": 10, "unit": "µM"}, {"measurement": "INH", "setting": "[3]", "value": 16, "unit": "µM"}, {"measurement": "MIC", "setting": "Bacillus subtilis", "value": 100, "unit": "µg/mL"}, {"measurement": "MIC", "setting": "Staphylococcus aureus [1]", "value": "32 to 128", "unit": "µg/mL"}, {"measurement": "INH", "setting": "Escherichia coli", "value": ">400", "unit": "µM"}, {"measurement": "Kd", "setting": "[6]", "value": 0.023, "unit": "µM"}]}, {"compound": "NC(=O)c1c(F)ccc(OCc2nc3cc(Cl)cnc3s2)c1F", "values": [{"measurement": "MIC", "setting": "Staphylococcus aureus [1]", "value": 1, "unit": "µg/mL"}, {"measurement": "Activity", "setting": "[7]", "value": 0.1, "unit": "µM"}]}, {"compound": "CC(=O)O[C@@]12CO[C@@H]1C[C@H](O)[C@@]1(C)C(=O)[C@H](O)C3=C(C)[C@@H](OC(=O)/C=C/c4ccc5ccccc5c4)C[C@@](O)([C@@H](OC(=O)c4ccccc4)[C@H]21)C3(C)C", "values": [{"measurement": "INH", "setting": "Bacillus subtilis", "value": 38, "unit": "µM"}, {"measurement": "INH", "setting": "[8]", "value": 35, "unit": "µM"}, {"measurement": "INH", "setting": "[9]", "value": 60, "unit": "µM"}]}, {"compound": "CCC(CC)c1cc([C@H]2CN3CC[C@H]2C[C@@H]3CN)nc(-c2ccncc2)n1", "values": [{"measurement": "MIC", "setting": "Staphylococcus aureus [1]", "value": 6.53, "unit": "µg/mL"}, {"measurement": "MIC", "setting": "Escherichia coli", "value": 13.1, "unit": "µg/mL"}, {"measurement": "INH", "setting": "[10]", "value": 37.5, "unit": "µM"}]}, {"compound": "CCN(CC)CCNc1nc(/C=C/c2ccc(Cl)cc2)nc2cc3ccccc3cc12", "values": [{"measurement": "IC50", "setting": "[5]", "value": 15, "unit": "µM"}, {"measurement": "MIC", "setting": "Bacillus subtilis", "value": 1.08, "unit": "µg/mL"}, {"measurement": "MIC", "setting": "Escherichia coli", "value": ">34", "unit": "µg/mL"}, {"measurement": "INH", "setting": "Staphylococcus aureus [4]", "value": 4.31, "unit": "µg/mL"}, {"measurement": "INH", "setting": "[11]", "value": 50, "unit": "µM"}, {"measurement": "INH", "setting": "[12]", "value": 50, "unit": "µM"}, {"measurement": "IC50", "setting": "[13]", "value": 15, "unit": "µM"}]}, {"compound": "O=C/C=C/c1ccccc1", "note": "[CINNAMALDEHYDE]", "values": [{"measurement": "INH", "setting": "[3]", "value": 5.81, "unit": "µM"}, {"measurement": "INH", "setting": "Bacillus subtilis", "value": 500, "unit": "mg/L"}, {"measurement": "INH", "setting": "Staphylococcus aureus [1]", "value": 250, "unit": "mg/L"}, {"measurement": "INH", "setting": "Escherichia coli", "value": 1000, "unit": "mg/L"}, {"measurement": "Ka", "setting": "[14]", "value": 1, "unit": "µM"}]}]}
